“And” between values parts separate entries of the source, which are not always exact repeats. Equal entries are not always repeated.
Columns and labels:
[1] = Oral Half Lethal Dose (LD50) in hens; format: in vivo; details: several solvents, mature Leghorn hens
[2] = Oral Half Lethal Dose (LD50) in rats; format: in vivo; details: several solvents, female and male Sprague Dawley rats
[3] = format: cell-based
Method: (§1) In vitro mutagenesis studies were carried out using the micronucleus assay with blockade of cytokinesis with and without metabolic activation, as well as the sister chromatide exchange assay with and without metabolic activation. It was are carried out a theoretical study assisted by computer for the prognosis of the mutagenic activity.

[4] = In vitro sister chromatide exchange assay; format: cell-based; details: with and without metabolic activation
Method: as §1

Eimeria tenella = experiment: Artificial infection of chicks with Eimeria tenella oocysts (Example 2); format: in vivo; details: 1x10^5 E. tenella oocysts oral; for Weight gain in % during 9 days: 9 days treatment; for Mortality: deaths/12 birds
Method: To carried out the assay of the action of the synthesized product, the 2-(2nitrovynil)-furan, it was first dissolved first in an alcoholic solution at 3% and later in water, using several concentrations (2, 4, 8 μg/ml) of the alcohol-water solution, as is shown Table 2.
One day old, male, free of Coccidia, F1 fatten chicks were used. These birds were maintained in an appropriate condition, free of Coccidia until two weeks of age. For feeding, it was used the same food used to fatten chickens but free of anticoccididals.
5 groups of 12 poultry with similar weight were formed which received an inoculation of 1×10^5 oocysts of Eimeria tenella by oral route, using a esophagic canula. The treatment began when chicks had 15 days of age, 24 hours before receiving the inoculation, during a period of 9 days.
To evaluate the effectiveness of the product the gain of weight (% referred to the initial weight) and the death number approaches were used in each tratment.

E. tenella = experiment: Leghorn egg-laying hens naturally infected with E. tenella (Example 3); format: in vivo; details: 4 μg/mL in drinking water twice a day for 5 days, deaths/2000 birds
Excerpt: The 2-(2-nitrovynil)-furan, in a formulation similar to that described in the example 2, was applied, in the drinking water twice a day (8 am and 12 m) for 5 days, to 2000 Leghorn egg-laying hens of 56-84 days of age, infected naturally with E. tenella. Two houses highly infected by caecal coccidiosis with 2000 birds each were there was an average of 119 deaths per house in 5 days were selected. The diagnoses was made by the presence of bloody diarrheas, the observation of typical lesions in the blind intestine and abundant presence of parasite oocysts in the caecal content. Infected birds in a house was left as nontreated control and another no infected as neither infected nor treated control having the same range of age.
To evaluate the effectiveness of the product the approach described in the example 2 was used, except that as weight control. Except that as weight control 10 birds of each pen were randomly selected and weighed at the beginning and the end of the treatment.

[5] = tested on: intestinal Coccidias (E. perforans, E. magna, E. media, E. exigua); experiment: Rabbits inoculated with oocysts of intestinal Eimeria (Example 4); format: in vivo; details: for Weight gain in % during 7 days: 4 μg/mL in drinking water for 5 days; for Mortality: 4 μg/mL, deaths/3 animals
Method: The 2-(2-nitrovynil)-furan, in a formulation similar to that described in the example 2, was dissolved in rabbits' drinking water and administered daily at libitum for 5 days. Two experiments (I, II), each one with 9 rabbits, were carried out. Each experiment had 3 treatments of 3 animals each one. Among treatments an infected no treated group and a group neither infected nor treated were considered.. In the 1st experiment each rabbit received 61×10^3 those of the 2nd experiment 116×10^3 oocysts of intestinal Coccidias. The present species were E. perforans 38%, E. magna 30%, E. media 22% and E. exigua 10%, with a 97.3% of sporulation. The initial and final weight difference and the deaths of animals after 7 days treatment was used as evaluation criteria.

[6] = tested on: Coccidia (E. perforans, E. magna, E. media, E. exigua); experiment: Oocyst reduction in feces of treated rabbits in production conditions (Example 5); format: in vivo; details: 4 μg/ml in drinking water 5 days, before vs after 7 days
Method: The 2-(2-nitrovynil)-furan, in a formulation similar to that described in the example 2, was dissolved in rabbit's drinking water and administered daily at libitum for 5 days at concentration of 4 μg/ml. It were treated 1 246 newborn, young and adult rabbits of the Chinchilla, New White Zelanda and New Red Zelanda species belonging to 3 rabbit companies. The species of Coccidia present were E. perforans 34%, E. magna 32%, E. media 23% and E. exigua 11%. The amount of oocysts per gram of feces before and after 7 days of the treatment was determined to 20% of all treated animals. The difference between the number of oocysts before and after 7 days of treatment expressed as percentage of oocyst reduction, was taken as efficacy criterium.

[7] = Experiment I, 61 x 10^3 oocysts
[8] = Experiment II, 116 x 10^3 oocysts

O=[N+]([O-])C=Cc1ccco1 [2-(2-nitrovynil)-furan]
Half Lethal Dose (LD50) [1]: 1.02 g/kg of body mass
Half Lethal Dose (LD50) [2]: 171.91 mg/kg of body mass
Mutagenic activity, micronucleus assay [3]: did not shown mutagenic activity
Mutagenic activity, sister chromatide exchange assay [4]: did not shown mutagenic activity
Weight gain in % during 9 days (Eimeria tenella; dose 2 μg/mL): 78.79%
Mortality (Eimeria tenella; dose 2 μg/mL): 1/12
Mortality (Eimeria tenella; dose 4 μg/mL): no deaths and 0/12
Weight gain in % during 9 days (Eimeria tenella; dose 8 μg/mL): 63.95%
Mortality (Eimeria tenella; dose 8 μg/mL): 0/12
Mortality in 5 days (E. tenella): remarkable decrease of mortality and 15/2000
Weight gain in % during 7 days [5, 7]: 4%
Mortality [5, 7]: no mortality and 0/3
Weight gain in % during 7 days [5, 8]: 3%
Mortality [5, 8]: no deaths and 0/3
Reduction in % (oocysts per gram of feces) ([6]; Company 1, rabbits): 90%
Reduction in % (oocysts per gram of feces) ([6]; Company 2, rabbits): 99%
Reduction in % (oocysts per gram of feces) ([6]; Company 3, rabbits): 90%

Reference: US20050043551A1, “Method of obtaining 2-(2-nitrovinyl)-furan and the use thereof as a coccidiostatic” (priority 2001, published 2005)
